Laboratory results: patent US20230096766A1, “AMINO ACID HAVING FUNCTIONAL GROUP CAPABLE OF INTERMOLECULAR HYDROGEN BONDING, PEPTIDE COMPOUND CONTAINING SAME AND METHOD FOR PRODUCTION THEREOF” (Chugai Seiyaku Kabushiki Kaisha, priority 2018, published 2023)
*1 amine or outer side, *2 acyl side, *3 side chain or, on linkers, in order; H or OH if unused. Where a SMILES comes first, the peptide text is derived from it. Bridges are numbered along the chain shown (N, C = ends). [ ]: non-standard residue; d: D form. The star is where a group is joined. NMePhe(3-Cl) = CN[C@@H](Cc1cccc(Cl)c1)C(=O)O; NMeF = CN[C@@H](Cc1ccccc1)C(=O)O; NMeGABA = CN(CCCC(=O)[*:2])[*:1]; NMeI = CC[C@H](C)[C@H](NC)C(=O)O; NMeL = CN[C@@H](CC(C)C)C(=O)O; Propyl(2R-OH) = C[C@@H](O)C*; NMeV = CN[C@H](C(=O)O)C(C)C; NMeA = CN[C@@H](C)C(=O)O; Piperidide = C1CCN(*)CC1; NBuGly = CCCCNCC(=O)O; NPrGly = CCCNCC(=O)O; X3 = C[C@H](O)C*; Sar = CNCC(=O)O; tBu = CC(C)(C)*

Assay: in vitro
Conditions: human, Caco-2, Caco-2 (cm/sec)

| SMILES | Papp [×10⁻⁶ cm/s] |
| --- | --- |
| CCCN1CC(=O)N(C)[C@@H](CC(C)C)C(=O)N[C@@H](COC[C@H](C)O)C(=O)N(C)[C@@H](Cc2cccc(Cl)c2)C(=O)N(C)[C@@H](C(C)C)C(=O)N[C@H](C(=O)N2CCCCC2)CC(=O)N[C@H](C(C)C)C(=O)N(C)[C@@H](Cc2ccccc2)C(=O)N[C@@H](CC(C)C)C(=O)N(C)[C@@H](CC(C)C)C(=O)N[C@@H]([C@@H](C)O)C1=O [AP70] ([dV][NMeF]L[NMeL]T[NPrGly][NMeL]S(X3)[NMePhe(3-Cl)][NMeV]D-Piperidide; lactam N-11) | 0.75 |
| CCCCN1CC(=O)N(C)[C@@H](CC(C)C)C(=O)N[C@@H](COC(C)(C)C)C(=O)N(C)[C@@H](Cc2ccccc2)C(=O)N(C)[C@@H](CC(C)C)C(=O)N[C@H](C(=O)N2CCCCC2)CC(=O)N[C@H](C(C)C)C(=O)N(C)[C@@H](Cc2ccccc2)C(=O)N[C@@H](COC[C@@H](C)O)C(=O)N(C)[C@@H](CC(C)C)C(=O)N[C@@H]([C@@H](C)O)C1=O [AP71] ([dV][NMeF]S(Propyl(2R-OH))[NMeL]T[NBuGly][NMeL]S(tBu)[NMeF][NMeL]D-Piperidide; lactam N-11) | 0.71 |
| CC(C)C[C@@H]1NC(=O)[C@H](Cc2ccccc2)N(C)C(=O)[C@@H](C(C)C)NC(=O)C[C@@H](C(=O)N2CCCCC2)NC(=O)[C@H](CC(C)C)N(C)C(=O)[C@H](Cc2cccc(Cl)c2)N(C)C(=O)[C@H](COC[C@@H](C)O)NC(=O)[C@H](CC(C)C)N(C)C(=O)CN(C)C(=O)[C@H]([C@@H](C)O)NC(=O)[C@H](CC(C)C)N(C)C1=O [AP72] ([dV][NMeF]L[NMeL]T[Sar][NMeL]S(Propyl(2R-OH))[NMePhe(3-Cl)][NMeL]D-Piperidide; lactam N-11) | 0.95 |
| CC[C@H](C)[C@@H]1NC(=O)[C@H](CC(C)C)N(C)C(=O)CCCN(C)C(=O)C[C@@H](C(=O)N2CCCCC2)NC(=O)[C@H](CC(C)C)N(C)C(=O)[C@H](CC(C)C)N(C)C(=O)[C@H]([C@@H](C)O)NC(=O)[C@H](CC(C)C)N(C)C(=O)[C@H](COC[C@@H](C)O)NC(=O)[C@H](Cc2cccc(Cl)c2)N(C)C(=O)[C@H](Cc2ccccc2)N(C)C1=O [AP74] ([NMeGABA][NMeL]I[NMeF][NMePhe(3-Cl)]S(Propyl(2R-OH))[NMeL]T[NMeL][NMeL]D-Piperidide; lactam N-11) | 0.31 |
| CCCCN1CC(=O)N(C)[C@@H](CC(C)C)C(=O)N[C@H](C(=O)N2CCCCC2)CC(=O)N(C)[C@@H](C)C(=O)N[C@@H](COC[C@@H](C)O)C(=O)N(C)[C@@H](CC(C)C)C(=O)N(C)[C@@H](Cc2cccc(Cl)c2)C(=O)N[C@@H](CC(C)C)C(=O)N(C)[C@@H](Cc2ccccc2)C(=O)N(C)[C@@H]([C@@H](C)CC)C(=O)N[C@@H]([C@@H](C)O)C1=O [AP75] ([NMeA]S(Propyl(2R-OH))[NMeL][NMePhe(3-Cl)]L[NMeF][NMeI]T[NBuGly][NMeL]D-Piperidide; lactam N-11) | 1.1 |
| CC[C@H](C)[C@H]1C(=O)N[C@@H]([C@@H](C)O)C(=O)N(C)CC(=O)N(C)[C@@H](CC(C)C)C(=O)N[C@H](C(=O)N2CCCCC2)CC(=O)N(C)[C@@H](C(C)C)C(=O)N[C@@H](CC(C)C)C(=O)N(C)[C@@H](CC(C)C)C(=O)N(C)[C@@H](Cc2ccccc2)C(=O)N[C@@H](COC[C@@H](C)O)C(=O)N(C)[C@@H](Cc2ccccc2)C(=O)N1C [AP76] ([NMeV]L[NMeL][NMeF]S(Propyl(2R-OH))[NMeF][NMeI]T[Sar][NMeL]D-Piperidide; lactam N-11) | 0.84 |
| CCCCN1CC(=O)N(C)[C@@H](Cc2ccccc2)C(=O)N(C)[C@@H](CC(C)C)C(=O)N[C@@H](COC(C)(C)C)C(=O)N(C)[C@@H](CC(C)C)C(=O)N[C@H](C(=O)N2CCCCC2)CC(=O)N(C)CC(=O)N(C)[C@@H](Cc2cccc(Cl)c2)C(=O)N[C@@H](COC[C@@H](C)O)C(=O)N(C)[C@@H](CC(C)C)C(=O)N[C@@H]([C@@H](C)O)C1=O [AP77] ([Sar][NMePhe(3-Cl)]S(Propyl(2R-OH))[NMeL]T[NBuGly][NMeF][NMeL]S(tBu)[NMeL]D-Piperidide; lactam N-11) | 1 |
| CCCCN1CC(=O)N(C)[C@@H](Cc2cccc(Cl)c2)C(=O)N(C)[C@@H](CC(C)C)C(=O)N[C@@H](COC[C@@H](C)O)C(=O)N(C)[C@@H](CC(C)C)C(=O)N[C@H](C(=O)N2CCCCC2)CC(=O)N(C)CC(=O)N(C)[C@@H](Cc2ccccc2)C(=O)N[C@@H]([C@@H](C)CC)C(=O)N(C)[C@@H](CC(C)C)C(=O)N[C@@H]([C@@H](C)O)C1=O [AP78] ([Sar][NMeF]I[NMeL]T[NBuGly][NMePhe(3-Cl)][NMeL]S(Propyl(2R-OH))[NMeL]D-Piperidide; lactam N-11) | 0.24 |
| CC[C@H](C)[C@H]1C(=O)N[C@@H]([C@@H](C)O)C(=O)N(C)CC(=O)N(C)[C@@H](CC(C)C)C(=O)N[C@H](C(=O)N2CCCCC2)CC(=O)N(C)[C@@H](C(C)C)C(=O)N[C@@H](COC[C@@H](C)O)C(=O)N(C)[C@@H](CC(C)C)C(=O)N(C)[C@@H](Cc2cccc(Cl)c2)C(=O)N[C@@H](CC(C)C)C(=O)N(C)[C@@H](Cc2ccccc2)C(=O)N1C [AP79] ([NMeV]S(Propyl(2R-OH))[NMeL][NMePhe(3-Cl)]L[NMeF][NMeI]T[Sar][NMeL]D-Piperidide; lactam N-11) | 1.1 |
| CCCCN1CC(=O)N(C)[C@@H](CC(C)C)C(=O)N[C@@H](COC[C@@H](C)O)C(=O)N(C)[C@@H](Cc2cccc(Cl)c2)C(=O)N(C)[C@@H](C(C)C)C(=O)N[C@H](C(=O)N2CCCCC2)CC(=O)N[C@H](C(C)C)C(=O)N(C)[C@@H](Cc2ccccc2)C(=O)N[C@@H](CC(C)C)C(=O)N(C)[C@@H](CC(C)C)C(=O)N[C@@H]([C@@H](C)O)C1=O [AP80] ([dV][NMeF]L[NMeL]T[NBuGly][NMeL]S(Propyl(2R-OH))[NMePhe(3-Cl)][NMeV]D-Piperidide; lactam N-11) | 0.36 |
| CC(C)C[C@@H]1NC(=O)[C@H](Cc2ccccc2)N(C)C(=O)[C@@H](CC(C)C)NC(=O)C[C@@H](C(=O)N2CCCCC2)NC(=O)[C@H](CC(C)C)N(C)C(=O)[C@H](Cc2ccccc2)N(C)C(=O)[C@H](COC(C)(C)C)NC(=O)[C@H](CC(C)C)N(C)C(=O)CN(C)C(=O)[C@H](COC[C@@H](C)O)NC(=O)[C@H](CC(C)C)N(C)C1=O [AP81] ([dL][NMeF]L[NMeL]S(Propyl(2R-OH))[Sar][NMeL]S(tBu)[NMeF][NMeL]D-Piperidide; lactam N-11) | 0.69 |
| CC(C)C[C@H]1C(=O)N[C@@H](C(C)C)C(=O)N(C)[C@@H](Cc2ccccc2)C(=O)N(C)[C@@H](Cc2ccccc2)C(=O)N[C@@H](COC(C)(C)C)C(=O)N(C)[C@@H](CC(C)C)C(=O)N[C@@H](COC[C@@H](C)O)C(=O)N(C)[C@@H](CC(C)C)C(=O)N(C)[C@@H](CC(C)C)C(=O)N[C@H](C(=O)N2CCCCC2)CC(=O)N(C)CCCC(=O)N1C [AP83] ([NMeGABA][NMeL]V[NMeF][NMeF]S(tBu)[NMeL]S(Propyl(2R-OH))[NMeL][NMeL]D-Piperidide; lactam N-11) | 1.3 |
| CC[C@H](C)[C@H]1C(=O)N[C@@H](COC[C@@H](C)O)C(=O)N(C)CC(=O)N(C)[C@@H](CC(C)C)C(=O)N[C@H](C(=O)N2CCCCC2)CC(=O)N(C)[C@@H](C)C(=O)N[C@@H](CC(C)C)C(=O)N(C)[C@@H](CC(C)C)C(=O)N(C)[C@@H](Cc2ccccc2)C(=O)N[C@@H](CC(C)C)C(=O)N(C)[C@@H](Cc2ccccc2)C(=O)N1C [AP85] ([NMeA]L[NMeL][NMeF]L[NMeF][NMeI]S(Propyl(2R-OH))[Sar][NMeL]D-Piperidide; lactam N-11) | 5.2 |
